From ChEMBL document CHEMBL1143658, “Discovery of 2-[(2,4-dichlorophenyl)amino]-N-[(tetrahydro- 2H-pyran-4-yl)methyl]-4-(trifluoromethyl)- 5-pyrimidinecarboxamide, a selective CB2 receptor agonist for the treatment of inflammatory pain” (J Med Chem, 2007)

Legend:
Cannabinoid receptor 2 [1] = biological target: T1, Cannabinoid receptor 2 (Homo sapiens, UniProt P34972); experiment: Efficacy at human recombinant CB2 receptor expressed in Saccharomyces cerevisiae cells relative to HU210; assay type: cell-based
Cannabinoid receptor 2 [2] = biological target: T1, Cannabinoid receptor 2; experiment: Agonist activity at human recombinant CB2 receptor expressed in Saccharomyces cerevisiae cells; assay type: functional, cell-based
Cytochrome P450 1A2 = biological target: T2, Cytochrome P450 1A2 (Homo sapiens, UniProt P05177); experiment: Inhibition of human CYP1A2; assay type: ADME
T2 sequence (P05177 whole entry): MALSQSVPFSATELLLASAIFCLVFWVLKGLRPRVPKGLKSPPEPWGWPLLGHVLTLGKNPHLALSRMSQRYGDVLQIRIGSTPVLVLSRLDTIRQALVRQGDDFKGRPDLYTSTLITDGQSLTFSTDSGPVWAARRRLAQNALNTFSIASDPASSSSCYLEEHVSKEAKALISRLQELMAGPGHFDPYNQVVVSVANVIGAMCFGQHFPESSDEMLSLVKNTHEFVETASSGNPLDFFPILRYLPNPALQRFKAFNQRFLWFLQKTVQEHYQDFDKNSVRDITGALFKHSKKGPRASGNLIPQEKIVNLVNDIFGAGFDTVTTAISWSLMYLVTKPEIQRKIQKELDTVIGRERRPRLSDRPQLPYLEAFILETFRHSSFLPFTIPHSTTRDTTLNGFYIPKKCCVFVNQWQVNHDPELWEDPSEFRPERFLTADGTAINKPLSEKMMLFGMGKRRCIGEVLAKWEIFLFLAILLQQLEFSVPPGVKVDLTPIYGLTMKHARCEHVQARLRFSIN

Cytochrome P450 2D6 = Cytochrome P450 2D6 (Homo sapiens, UniProt P10635); experiment: Inhibition of human CYP2D6; assay type: ADME
Cytochrome P450 3A4 = Cytochrome P450 3A4 (Homo sapiens, UniProt P08684); experiment: Inhibition of human CYP3A4
Cytochrome P450 2C9 = Cytochrome P450 2C9 (Homo sapiens, UniProt P11712); experiment: Inhibition of human CYP2C9; assay type: ADME
Cytochrome P450 2C19 = Cytochrome P450 2C19 (Homo sapiens, UniProt P33261); experiment: Inhibition of human CYP2C19; assay type: ADME
Liver microsomes = experiment: Intrinsic clearance in rat liver microsome; assay type: ADME
[3] = biological target: Cannabinoid receptor 1 (Homo sapiens) (UniProt P21554); experiment: Agonist activity at recombinant human CB1 receptor expressed in Saccharomyces cerevisiae cells at 2 uM; assay type: functional, cell-based
Cannabinoid receptor 1 (Homo sapiens), sequence (P21554 whole entry): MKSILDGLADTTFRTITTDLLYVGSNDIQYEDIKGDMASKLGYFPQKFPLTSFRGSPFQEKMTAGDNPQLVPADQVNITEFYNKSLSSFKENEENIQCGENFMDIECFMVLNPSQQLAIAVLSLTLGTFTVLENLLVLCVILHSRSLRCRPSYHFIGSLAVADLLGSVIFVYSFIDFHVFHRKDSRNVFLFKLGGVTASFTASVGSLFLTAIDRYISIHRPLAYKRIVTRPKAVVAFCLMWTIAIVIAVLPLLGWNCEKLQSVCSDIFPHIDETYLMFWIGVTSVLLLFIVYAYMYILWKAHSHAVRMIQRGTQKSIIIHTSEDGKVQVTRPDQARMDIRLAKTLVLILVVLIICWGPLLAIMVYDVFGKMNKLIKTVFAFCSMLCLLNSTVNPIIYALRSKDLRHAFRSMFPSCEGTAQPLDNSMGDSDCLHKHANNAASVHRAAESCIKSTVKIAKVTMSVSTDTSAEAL

Cytochrome P450 2C19, sequence (P33261 whole entry): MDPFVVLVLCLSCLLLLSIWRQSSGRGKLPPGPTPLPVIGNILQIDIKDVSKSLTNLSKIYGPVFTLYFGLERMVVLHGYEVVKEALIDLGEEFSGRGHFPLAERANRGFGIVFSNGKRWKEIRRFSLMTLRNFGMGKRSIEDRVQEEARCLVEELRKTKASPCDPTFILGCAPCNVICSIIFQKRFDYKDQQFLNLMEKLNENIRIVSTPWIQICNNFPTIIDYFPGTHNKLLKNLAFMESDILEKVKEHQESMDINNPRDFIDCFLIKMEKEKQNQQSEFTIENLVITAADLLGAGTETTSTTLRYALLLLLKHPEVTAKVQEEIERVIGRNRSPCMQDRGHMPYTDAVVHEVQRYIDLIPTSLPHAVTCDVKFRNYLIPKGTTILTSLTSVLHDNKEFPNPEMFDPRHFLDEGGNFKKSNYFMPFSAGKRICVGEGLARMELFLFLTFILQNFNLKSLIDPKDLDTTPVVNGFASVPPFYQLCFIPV
Cytochrome P450 2C9, sequence (P11712 whole entry): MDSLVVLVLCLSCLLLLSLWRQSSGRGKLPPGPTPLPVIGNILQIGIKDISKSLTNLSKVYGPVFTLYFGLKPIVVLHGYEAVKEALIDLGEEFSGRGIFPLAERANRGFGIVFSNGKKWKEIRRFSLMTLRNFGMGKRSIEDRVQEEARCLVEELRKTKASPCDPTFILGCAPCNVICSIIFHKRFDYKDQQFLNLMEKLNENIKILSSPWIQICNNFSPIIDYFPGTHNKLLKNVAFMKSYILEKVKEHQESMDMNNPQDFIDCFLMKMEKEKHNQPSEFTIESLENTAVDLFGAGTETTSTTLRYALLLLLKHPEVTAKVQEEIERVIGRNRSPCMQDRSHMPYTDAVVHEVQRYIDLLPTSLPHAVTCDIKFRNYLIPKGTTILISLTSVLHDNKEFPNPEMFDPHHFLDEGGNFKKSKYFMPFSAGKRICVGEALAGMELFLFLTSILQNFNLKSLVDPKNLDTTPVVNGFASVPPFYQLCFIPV
Cytochrome P450 3A4, sequence (P08684 whole entry): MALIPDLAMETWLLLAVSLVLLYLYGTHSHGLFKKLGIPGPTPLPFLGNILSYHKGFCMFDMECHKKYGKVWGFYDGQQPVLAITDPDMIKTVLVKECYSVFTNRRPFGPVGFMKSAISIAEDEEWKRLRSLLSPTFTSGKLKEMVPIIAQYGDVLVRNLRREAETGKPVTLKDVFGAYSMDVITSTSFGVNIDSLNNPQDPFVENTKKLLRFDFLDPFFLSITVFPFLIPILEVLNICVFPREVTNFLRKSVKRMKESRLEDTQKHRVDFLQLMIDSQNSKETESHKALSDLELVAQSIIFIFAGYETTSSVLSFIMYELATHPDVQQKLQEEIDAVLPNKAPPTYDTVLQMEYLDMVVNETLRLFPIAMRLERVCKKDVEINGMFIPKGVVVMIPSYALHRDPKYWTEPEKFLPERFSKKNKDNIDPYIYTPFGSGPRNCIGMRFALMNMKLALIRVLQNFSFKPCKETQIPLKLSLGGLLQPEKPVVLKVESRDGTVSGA
Cytochrome P450 2D6, sequence (P10635 whole entry): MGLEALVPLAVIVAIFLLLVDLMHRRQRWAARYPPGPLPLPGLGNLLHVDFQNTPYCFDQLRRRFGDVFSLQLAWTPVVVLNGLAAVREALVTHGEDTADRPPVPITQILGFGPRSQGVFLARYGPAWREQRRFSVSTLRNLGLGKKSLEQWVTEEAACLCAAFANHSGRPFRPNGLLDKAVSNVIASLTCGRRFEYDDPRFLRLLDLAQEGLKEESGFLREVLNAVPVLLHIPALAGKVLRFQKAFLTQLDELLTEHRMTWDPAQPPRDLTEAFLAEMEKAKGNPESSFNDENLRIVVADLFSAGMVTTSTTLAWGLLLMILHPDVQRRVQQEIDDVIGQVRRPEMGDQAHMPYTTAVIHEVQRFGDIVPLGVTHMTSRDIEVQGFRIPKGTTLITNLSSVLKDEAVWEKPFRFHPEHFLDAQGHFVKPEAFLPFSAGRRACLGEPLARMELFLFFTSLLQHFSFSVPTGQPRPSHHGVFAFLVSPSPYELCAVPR
T1 sequence (P34972 whole entry): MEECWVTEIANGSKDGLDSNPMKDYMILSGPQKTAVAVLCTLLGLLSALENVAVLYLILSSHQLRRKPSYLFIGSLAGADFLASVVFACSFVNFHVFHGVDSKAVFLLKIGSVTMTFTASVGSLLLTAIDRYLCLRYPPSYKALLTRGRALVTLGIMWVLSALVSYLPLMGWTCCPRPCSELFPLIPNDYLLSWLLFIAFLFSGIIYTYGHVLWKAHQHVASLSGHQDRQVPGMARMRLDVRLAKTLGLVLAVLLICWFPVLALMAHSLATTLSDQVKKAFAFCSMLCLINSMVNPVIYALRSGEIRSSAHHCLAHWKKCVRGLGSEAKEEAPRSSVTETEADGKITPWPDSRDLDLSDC

SMILES | Efficacy (Cannabinoid receptor 2 [1]) [%] | EC50 (Cannabinoid receptor 2 [2]) [µM] | IC50 (Cytochrome P450 1A2) [µM] | IC50 (Cytochrome P450 2D6) [µM] | IC50 (Cytochrome P450 3A4) [µM] | IC50 (Cytochrome P450 2C9) [µM] | IC50 (Cytochrome P450 2C19) [µM] | CL (Liver microsomes) [mL/min/g] | Efficacy [3] [%]
O=C(NCc1ccccc1Cl)c1cnc(Nc2cccc(Cl)c2)nc1C(F)(F)F | 21 | 10 |  |  |  |  |  |  | 
O=C(NCC1CCOCC1)c1cnc(Nc2cccc(Cl)c2Cl)nc1C(F)(F)F | 90 | 0.08 |  |  |  |  |  |  | 
O=C(NCC1CCOCC1)c1cnc(Nc2cccc(Cl)c2)nc1C(F)(F)F | 89 | 0.05 | > 100 | 51 | 51 | 18 | 56 |  | 
O=C(NCc1ccccc1)c1cnc(Nc2ccccc2)nc1C(F)(F)F | 45 | 0.4 |  |  |  |  |  | < 0.5 | 
O=C(NCC1CCOCC1)c1cnc(Nc2cccc(Cl)c2F)nc1C(F)(F)F | 90 | 0.125 | 99 | > 100 | > 100 | 75 | > 100 |  | 
O=C(NCC1CCOCC1)c1cnc(Nc2ccc(F)cc2F)nc1C(F)(F)F | 81 | 0.63 |  |  |  |  |  |  | 
O=C(NCC1CCNCC1)c1cnc(Nc2cccc(Cl)c2)nc1C(F)(F)F | 46 | 5 |  |  |  |  |  |  | 
O=C(NCc1ccccc1)c1cnc(Nc2ccccc2Cl)nc1C(F)(F)F | 48 | 0.25 |  |  |  |  |  |  | 
O=C(NCc1ccccc1)c1cnc(Nc2cccc(F)c2)nc1C(F)(F)F | 88 | 0.31 |  |  |  |  |  |  | 
O=C(NCC1CCOCC1)c1cnc(Nc2cccc(F)c2F)nc1C(F)(F)F | 90 | 0.4 |  |  |  |  |  |  | 
O=C(NCc1ccc(F)cc1)c1cnc(Nc2cccc(Cl)c2)nc1C(F)(F)F | 78 | 0.063 | 8 | 1.5 | 5 | 8 | 12 |  | 
O=C(OCc1ccco1)c1cnc(N2CCOCC2)nc1C(F)(F)F | 55 | 0.63 |  |  |  |  |  |  | 
N#Cc1ccc(Nc2ncc(C(=O)NCc3ccccc3)c(C(F)(F)F)n2)cc1 | 67 | 0.4 |  |  |  |  |  |  | 
O=C(NCc1ccccc1)c1cnc(Nc2cccc(Br)c2)nc1C(F)(F)F | 81 | 0.23 |  |  |  |  |  |  | 
COc1ccccc1CNC(=O)c1cnc(Nc2cccc(Cl)c2)nc1C(F)(F)F | 78 | > 25 |  |  |  |  |  |  | 
O=C(NCC1CCC1)c1cnc(Nc2cccc(Cl)c2)nc1C(F)(F)F | 82 | 0.04 | 8 | 22 | 75 | 3 | 8 |  | 
O=C(NCC1CCOCC1)c1cnc(Nc2cc(Cl)ccc2F)nc1C(F)(F)F | 86 | 0.125 | 26 | > 100 | 68 | 37 | > 100 |  | 
O=C(NCc1ccco1)c1cnc(Nc2ccccc2)nc1C(F)(F)F | 62 | 0.63 |  |  |  |  |  | 4.6 | 
COc1ccc(Nc2ncc(C(=O)NCc3ccccc3)c(C(F)(F)F)n2)cc1 | 32 | 0.2 |  |  |  |  |  |  | 
O=C(NCC1CCCC1)c1cnc(Nc2cccc(Cl)c2)nc1C(F)(F)F | 83 | 0.08 | 32 | > 100 | 65 | 6 | 14 |  | 
CC(=O)Nc1ccc(Nc2ncc(C(=O)NCc3ccccc3)c(C(F)(F)F)n2)cc1 |  | > 25 |  |  |  |  |  |  | 
CC(=O)Nc1cccc(Nc2ncc(C(=O)NCc3ccccc3)c(C(F)(F)F)n2)c1 |  | > 25 |  |  |  |  |  |  | 

SMILES | Efficacy (Cannabinoid receptor 2 [1]) [%] | EC50 (Cannabinoid receptor 2 [2]) [µM] | IC50 (Cytochrome P450 1A2) [µM] | IC50 (Cytochrome P450 2D6) [µM] | IC50 (Cytochrome P450 3A4) [µM] | IC50 (Cytochrome P450 2C9) [µM] | IC50 (Cytochrome P450 2C19) [µM] | CL (Liver microsomes) [mL/min/g] | Efficacy [3] [%]
COc1cccc(Nc2ncc(C(=O)NCc3ccccc3)c(C(F)(F)F)n2)c1 | 76 | 0.465 |  |  |  |  |  |  | 
O=C(NCC1CCOCC1)c1cnc(Nc2ccc(Cl)cc2F)nc1C(F)(F)F | 80 | 0.2 | > 100 | > 100 | > 100 | > 100 | > 100 |  | 
O=C(NCC1CCOCC1)c1cnc(Nc2cc(Cl)cc(Cl)c2)nc1C(F)(F)F | 85 | 0.033 | > 100 | 27 | 38 | 13 | 14 |  | 
CC(C)(C)c1ccc(Nc2ncc(C(=O)NCc3ccccc3)c(C(F)(F)F)n2)cc1 |  | > 25 |  |  |  |  |  |  | 
COc1cccc(CNC(=O)c2cnc(Nc3cccc(Cl)c3)nc2C(F)(F)F)c1 | 20 | 25 |  |  |  |  |  |  | 
O=C(NCc1ccccc1)c1cnc(Nc2ccc(Cl)cc2)nc1C(F)(F)F | 49 | 0.126 |  |  |  |  |  |  | 
O=C(NCC1CCOCC1)c1cnc(Nc2cc(F)cc(F)c2)nc1C(F)(F)F | 91 | 0.125 | 24 | 45 | > 100 | > 100 | 91 |  | 
O=C(NCc1ccncc1)c1cnc(Nc2cccc(Cl)c2)nc1C(F)(F)F | 94 | 0.06 | 0.4 | < 0.1 | < 0.1 | 0.9 | 1.9 |  | 
O=C(NCC1CCCCC1)c1cnc(Nc2cccc(Cl)c2)nc1C(F)(F)F | 82 | 0.08 | > 100 | > 100 | 82 | 9 | 19 |  | 
O=C(NCC1CCOCC1)c1cnc(Nc2ccc(Cl)c(Cl)c2)nc1C(F)(F)F | 83 | 0.049 | 8 | > 25 | > 25 | > 25 | > 25 |  | 10
O=C(NCC1CCOCC1)c1cnc(Nc2c(Cl)cccc2Cl)nc1C(F)(F)F | 86 | 0.63 |  |  |  |  |  |  | 
O=C(NCc1cccc(Cl)c1)c1cnc(Nc2cccc(Cl)c2)nc1C(F)(F)F | 18 | 1.58 |  |  |  |  |  |  | 
O=C(NCc1ccc(Cl)cc1)c1cnc(Nc2cccc(Cl)c2)nc1C(F)(F)F | 65 | 0.4 |  |  |  |  |  |  | 
O=C(NCC1CCOCC1)c1cnc(Nc2ccc(F)cc2Cl)nc1C(F)(F)F | 85 | 0.4 |  |  |  |  |  |  | 
O=C(NCC1(O)CCCCC1)c1cnc(Nc2cccc(Cl)c2)nc1C(F)(F)F | 83 | 0.125 | 11 | 13 |  |  | 17 |  | 
O=C(NCc1ccccc1)c1cnc(Nc2cccc(Cl)c2)nc1C(F)(F)F | 82 | 0.245 |  |  |  |  |  |  | 
N#Cc1cccc(Nc2ncc(C(=O)NCc3ccccc3)c(C(F)(F)F)n2)c1 | 76 | 0.455 |  |  |  |  |  |  | 
N#Cc1ccc(CNC(=O)c2cnc(Nc3cccc(Cl)c3)nc2C(F)(F)F)cc1 | 69 | 0.22 |  |  |  |  |  |  | 
COc1ccccc1Nc1ncc(C(=O)NCc2ccccc2)c(C(F)(F)F)n1 | 77 | 0.158 |  |  |  |  |  |  | 
O=C(NCC1CC1)c1cnc(Nc2cccc(Cl)c2)nc1C(F)(F)F | 79 | 0.08 |  |  |  |  |  |  | 
COc1ccc(CNC(=O)c2cnc(Nc3cccc(Cl)c3)nc2C(F)(F)F)cc1 | 66 | 0.214 |  |  |  |  |  |  | 
O=C(NCC1CCOCC1)c1cnc(Nc2cc(Cl)ccc2Cl)nc1C(F)(F)F | 85 | 0.1 |  |  |  |  |  |  | 
